Legend:
[1] = target: T1, human αvβ3 integrin (Homo sapiens, UniProt P05106+P06756); test: αvβ3-vitronectin binding assay (solid phase); conditions: for IC50: inhibition of biotinylated vitronectin (5 nM) binding to coated αvβ3, read-out: αvβ3 (IC50 μmol); for ratio between αIIbβ3 and αvβ3 inhibiting activity: selectivity, αIIbβ3 IC50 over αvβ3 IC50
T1 construct: was purified from human placenta; from tissue; host or cells: human placenta
Protocol: A solid phase assay for the study of αvβ3-vitronectin binding was set up on the basis of already published methods (Wong et al., Molecular Pharmacology 50: 529-537, 1996; Brooks et al., Cell 85: 683-693, 1996). The human αvβ3 integrin was diluted into coating buffer (CB) containing 150 mM NaCl, 1 mM CaCl2, 1 mM MgCl2, 1 mM MnCl2, 20 mM TRIS, pH 7.4 at a concentration of 1.5 μg/ml. Into 96-well plates, 50 μl of the diluted integrin were added and allowed to bind to the plate walls overnight at 4° C. Next day, the assay plates were emptied and 100 μl of blocking buffer (CB buffer with 3% BSA) were added to each well for 45 min at 37° C. After the incubation, the plates were washed three times with 100 μl assay buffer (AB, CB buffer with 0.1% BSA). Serial 1:1 dilution (25 μl/well) of the test compounds were added to the plates, starting from 10 mM solutions in 100% DMSO diluted to 100 µM in AB. The binding reaction was started by addition (25 μl/well) of 10 nM biotinylated vitronectin (final concentration: 5 nM), and lasted 30 min at 37° C. The concentration range of the tested compounds spanned from 50 to 0.0005 μM. At the end of the co-incubation, the assay plates were washed as before and 70 μl of a 1:1000 AB dilution of peroxydase-conjugated streptavidin were added per well and were allowed to react for 45 min at 37° C. Then, the plates were washed as described and 50 μl of ready to use Turbo-TMB substrate for peroxydase were added to each well. After 30 minutes incubation at room temperature, the colour development was stopped with 50 μl sulphuric acid 0.38 M and the plates were read at a wavelength of 450 nm with a Packard plate reader. The values obtained were analyzed by four parameters curve fit in the computer program GraphPad Prism, after normalization by a maximum binding control (Bmax) detected in wells where no competitor was added, and a minimum binding control (NSB) detected in wells where no integrin was coated. Under standard assay conditions, A450 was never under 1.0 for Bmax, and around 0.15 for NSB.
Human vitronectin receptor ([…]v[…]3) was purified from human placenta (Pytela et al., Methods in Enzymology, 144: 475-489, 1987). Turbo-TMB was from PIERCE (34022). BSA (A4503), Vitronectin (V8379), RGD peptide (G4144) and all generic reagents were from SIGMA. Vitronectin was biotinylated according to the procedure indicated in the NHS biotinylation kit from PIERCE (21420). Horseradish peroxydase-streptavidin was from Amersham (RPN1231). 96-well plates were from Costar (#3690, EIA/RIA plate, ½ area flat bottom, high binding).

[2] = target: T2, αIIbβ3 integrin (human fibrinogen receptor) (Homo sapiens, UniProt P05106+P08514); test: αIIbβ3-fibrinogen binding assay (solid phase); conditions: inhibition of biotinylated fibrinogen (10 nM) binding to coated αIIbβ3; read-out: αIIbβ3 (IC50 μmol)
T2 construct: was purified from human platelets; from tissue; host or cells: human platelets
Protocol: A solid phase assay for the study of αIIbβ3-fibrinogen binding was set up on according to the method described for αvβ3. αIIbβ3 integrin was diluted into coating buffer (CB) containing 150 mM NaCl, 1 mM CaCl2, 1 mM MgCl2, 1 mM MnCl2, 20 mM TRIS, pH 7.4 at a concentration of 3 μg/ml. Into 96-well plates, 50 μl of the diluted integrin were added and allowed to bind to the plate walls overnight at 4° C. Next day, the assay plates were emptied and 100 μl of blocking buffer (CB buffer with 3% BSA) were added to each well for 45 min at 37° C. […] Then, the plates were washed as described and 50 μl of ready to use Turbo-TMB substrate for peroxydase were added to each well. After 30 minutes incubation at room temperature, the colour development was stopped with 50 μl sulphuric acid 0.38 M and the plates were read at a wavelength of 450 nm with a Packard plate reader. The values obtained were analysed by four parameters curve fit with the computer program GraphPad Prism, after normalization by a maximum binding control (Bmax) detected in wells where no competitor was added, and a minimum binding control (NSB) detected in wells where no integrin was coated. […]

T1 sequence (P06756 31-889 limits assumed): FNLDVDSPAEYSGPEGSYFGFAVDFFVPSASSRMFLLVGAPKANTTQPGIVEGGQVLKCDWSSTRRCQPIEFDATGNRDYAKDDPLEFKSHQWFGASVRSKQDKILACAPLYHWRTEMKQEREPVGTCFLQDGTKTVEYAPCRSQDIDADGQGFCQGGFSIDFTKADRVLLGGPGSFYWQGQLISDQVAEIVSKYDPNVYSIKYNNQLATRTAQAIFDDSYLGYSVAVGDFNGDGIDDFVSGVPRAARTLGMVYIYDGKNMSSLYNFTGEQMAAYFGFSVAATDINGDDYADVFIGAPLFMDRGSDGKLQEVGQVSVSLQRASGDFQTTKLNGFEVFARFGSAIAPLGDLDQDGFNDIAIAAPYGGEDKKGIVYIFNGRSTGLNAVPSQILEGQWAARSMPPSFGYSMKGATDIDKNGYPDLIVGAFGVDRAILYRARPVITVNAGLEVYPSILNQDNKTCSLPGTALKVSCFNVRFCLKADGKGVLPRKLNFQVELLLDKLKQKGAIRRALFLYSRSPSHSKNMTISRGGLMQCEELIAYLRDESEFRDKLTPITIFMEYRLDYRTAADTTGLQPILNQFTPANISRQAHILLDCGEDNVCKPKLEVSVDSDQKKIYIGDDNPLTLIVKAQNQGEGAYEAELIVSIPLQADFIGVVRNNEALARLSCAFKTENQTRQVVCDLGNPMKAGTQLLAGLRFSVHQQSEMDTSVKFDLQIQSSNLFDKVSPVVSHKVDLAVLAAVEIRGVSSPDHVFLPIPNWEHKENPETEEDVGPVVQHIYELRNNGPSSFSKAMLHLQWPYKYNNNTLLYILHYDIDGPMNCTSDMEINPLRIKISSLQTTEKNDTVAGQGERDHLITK
T1 sequence (P06756 891-1048 partner limits assumed): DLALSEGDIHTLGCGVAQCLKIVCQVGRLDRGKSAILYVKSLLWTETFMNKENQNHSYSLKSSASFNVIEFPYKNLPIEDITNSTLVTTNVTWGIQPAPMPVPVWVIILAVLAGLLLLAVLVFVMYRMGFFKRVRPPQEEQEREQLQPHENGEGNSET
T1 sequence (P05106 27-788): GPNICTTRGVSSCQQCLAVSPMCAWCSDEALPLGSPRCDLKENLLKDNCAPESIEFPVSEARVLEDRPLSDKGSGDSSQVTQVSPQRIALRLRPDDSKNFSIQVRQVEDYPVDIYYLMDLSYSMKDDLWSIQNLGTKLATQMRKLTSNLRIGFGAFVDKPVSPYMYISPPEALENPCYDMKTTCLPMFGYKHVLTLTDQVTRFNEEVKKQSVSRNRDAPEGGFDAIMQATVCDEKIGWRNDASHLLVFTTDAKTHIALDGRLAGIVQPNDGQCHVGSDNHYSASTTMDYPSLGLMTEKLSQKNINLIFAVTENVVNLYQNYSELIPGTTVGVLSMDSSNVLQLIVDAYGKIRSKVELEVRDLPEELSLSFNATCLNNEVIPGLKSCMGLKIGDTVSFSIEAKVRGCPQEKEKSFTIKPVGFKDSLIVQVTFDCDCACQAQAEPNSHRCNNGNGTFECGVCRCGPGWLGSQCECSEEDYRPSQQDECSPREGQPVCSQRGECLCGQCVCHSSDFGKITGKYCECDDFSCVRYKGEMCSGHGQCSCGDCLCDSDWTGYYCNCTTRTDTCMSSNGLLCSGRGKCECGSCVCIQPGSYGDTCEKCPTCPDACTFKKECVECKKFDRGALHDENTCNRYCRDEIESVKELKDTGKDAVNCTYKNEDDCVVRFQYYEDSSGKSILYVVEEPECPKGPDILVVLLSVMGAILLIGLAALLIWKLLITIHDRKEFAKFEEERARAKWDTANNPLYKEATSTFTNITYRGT
T2 sequence (P08514 32-887 limits assumed): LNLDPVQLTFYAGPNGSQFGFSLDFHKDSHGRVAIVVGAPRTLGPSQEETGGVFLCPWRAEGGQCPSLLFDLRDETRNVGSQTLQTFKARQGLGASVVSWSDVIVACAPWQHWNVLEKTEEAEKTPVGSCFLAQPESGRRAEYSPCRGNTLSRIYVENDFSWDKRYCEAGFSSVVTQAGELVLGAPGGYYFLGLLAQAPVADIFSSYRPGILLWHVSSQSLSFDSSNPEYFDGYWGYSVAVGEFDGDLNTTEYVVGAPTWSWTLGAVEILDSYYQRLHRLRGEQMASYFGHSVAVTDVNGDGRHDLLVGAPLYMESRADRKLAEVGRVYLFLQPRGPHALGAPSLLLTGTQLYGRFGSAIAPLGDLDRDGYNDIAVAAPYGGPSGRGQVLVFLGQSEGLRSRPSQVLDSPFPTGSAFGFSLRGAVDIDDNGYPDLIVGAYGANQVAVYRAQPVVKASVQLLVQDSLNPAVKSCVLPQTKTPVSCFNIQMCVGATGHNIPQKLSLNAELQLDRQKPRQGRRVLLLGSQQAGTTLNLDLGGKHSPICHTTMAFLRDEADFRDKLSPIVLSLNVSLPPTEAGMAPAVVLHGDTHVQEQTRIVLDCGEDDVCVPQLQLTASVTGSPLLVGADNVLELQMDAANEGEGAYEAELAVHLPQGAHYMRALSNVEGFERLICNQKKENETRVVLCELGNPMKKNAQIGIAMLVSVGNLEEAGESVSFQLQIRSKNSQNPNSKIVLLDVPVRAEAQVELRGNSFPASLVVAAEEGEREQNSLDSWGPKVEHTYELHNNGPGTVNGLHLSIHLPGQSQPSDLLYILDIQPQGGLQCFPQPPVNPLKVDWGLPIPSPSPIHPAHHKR
T2 sequence (P08514 891-1039 partner limits assumed): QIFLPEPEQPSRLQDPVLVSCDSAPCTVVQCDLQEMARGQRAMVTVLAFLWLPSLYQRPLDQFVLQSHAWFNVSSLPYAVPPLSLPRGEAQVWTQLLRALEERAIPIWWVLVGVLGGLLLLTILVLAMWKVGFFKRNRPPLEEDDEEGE
T2 sequence (P05106 27-788): as the sequence (P05106 27-788) above

| SMILES | IC50 [1] [µM] | ratio between αIIbβ3 and αvβ3 inhibiting activity [1] | IC50 [2] [µM] |
| --- | --- | --- | --- |
| O=C(O)CC1CN(c2ccccc2)c2cc(NC(=O)CCNc3ccccn3)ccc2O1 (stereo not drawn) [Compound 1a, (4-phenyl-6-{[3-(2-pyridinylamino)propanoyl]amino}-3,4-dihydro-2H-1,4-benzoxazin-2-yl)acetic acid] | 0.044 ± 0.025 | about 1,000 | 30 |
| O=C(O)CC1CN(c2ccccc2)c2cc(NC(=O)CCCNc3ccccn3)ccc2O1 (stereo not drawn) [Compound 1b, (4-phenyl-6-{[4-(2-pyridinylamino)butanoyl]amino}-3,4-dihydro-2H-1,4-benzoxazin-2-yl)acetic acid] | 0.024 ± 0.009 | about 1,000 | 27 |

From US6794385B2, “Benzoxazine derivatives useful as integrin receptor antagonists” (Pharmacia & Upjohn, S.p.A., priority 2001, dated 2004)
